One substance from patent US20240272142A1, “METHOD FOR DETERMINING WHITENING EFFICACY OF COSMETIC RAW MATERIAL AND USE THEREOF” (SHENZHEN INSTITUTE FOR DRUG CONTROL (SHENZHEN TESTING …, priority 2023, published 2024) can be followed below.

Where “and” joins values, the source holds several entries; their conditions need not be identical. Equal values may be shown once.

The test system of the assay is mouse melanoma cells B16-F10. The experiment in a line: Relative melanin content of B16-F10 cells after 24 h stimulation with α-MSH (Example 1). The assay is classed as cell-based. Particulars: absorbance at 405 nm relative to blank group, three replicate values. The method, then: The results in the examples of the present disclosure are all expressed in terms of a relative melanin content: the relative melanin content=absorbance of the experimental group/absorbance of the blank group×100%.
• (1) A cell suspension of B16-F10 cells in a logarithmic growth phase was inoculated into 6-well plates in a cell density of 2×10^5 cells/mL, with an amount being 2 mL in each well, and then added into a 5% carbon dioxide incubator and cultured at a temperature of 37° C. for 24 h. • (2) A medium contained in the 6-well plates was removed, the B16-F10 cells were washed with 2 mL of the PBS, 2 mL of substances from each of the following groups each were added into each well of the 6-well plates, and then cultured in the 5% carbon dioxide incubator at a temperature of 37° C. for 24 h.
Blank group: 2 mL of a basal DMEM was added into each well.
Model group: 2 mL of a-MSH solutions with different concentrations (0.5 μM, 1 μM, 2.5 μM, 5 μM, and 10 μM) were separately added into each well. • (3) Determination of a relative melanin content: the basal DMEM in the 6-well plates was removed by using a sterile pipette, the B16-F10 cells were washed with 2 mL of the PBS, and digested with 400 μL of trypsin; then the digesting was terminated with 1 mL of a complete DMEM; the B16-F10 cells were collected into centrifuge tubes, and centrifuged at 2,500 rpm for 10 min; a resulting supernatant after centrifugation was discarded, the resulting B16-F10 cells were centrifuged with 1,000 μL of the PBS for a second time, 500 μL of a 1 mol/L NaOH solution (containing 10% of DMSO) was added into each of the centrifuge tubes, and subjected to water bath at a temperature of 80° C. for 1 h to obtain a product; 200 μL of the product was transferred into a 96-well plate, an absorbance at 405 nm was determined and calculated to obtain the relative melanin content.

“α-melanocyte-stimulating hormone [α-MSH]”: the Relative melanin content by setting is: (α-MSH 0.5 μM) 102.51% and 111.76% and 97.21%; (α-MSH 1.0 μM) 104.65% and 100.54% and 103.16%; (α-MSH 2.5 μM) 98.75% and 98.22% and 102.18%; (α-MSH 5.0 μM) 96.79% and 97.45% and 95.71%; (α-MSH 10 μM) 111.71% and 108.05% and 112.79%.
